# Measured values: patent publication US9556183B2, “Substituted pyrazolylpyrazole derivative and use of same as herbicide” (KYOYU AGRI CO., LTD., priority 2013, dated 2017)
# What was measured:
# Rice plants = test: Paddy herbicidal activity test, phytotoxicity to transplanted rice; format: in vivo; conditions: rice transplanted at 2.0 leaf stage, 30 days
# How it was run: (§1)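 Flooded paddy-soil pots (3 cm water) sown with weeds; rice at 2.0 leaf stage transplanted when Echinochloa reached 3.5 leaf stage, then diluted wettable powder dropped into water at prescribed rate per are. After 30 days in greenhouse (mean 30° C), growth inhibition vs untreated (efficacy) or vs complete kill (phytotoxicity) scored on 11 levels.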
# Digitaria ciliaris [1] = test: Weed foliar treatment test; format: in vivo; conditions: foliar spray at 1.0 to 2.0 leaf stage of Digitaria ciliaris, 3 weeks
# Procedure: (§2) Evaluation of herbicidal efficacy was carried out by comparing growth inhibition rate (%) with an untreated group, while evaluation of phytotoxicity was carried out by comparing growth inhibition rate (%) with the state of a complete eradication group, and were evaluated at 11 levels indicated below. [table] Soil was filled into a 1/6000 are pot followed by seeding with Digitaria ciliaris, Chenopodium album and Amaranthus retroflexus, covering with soil, and cultivating in a glass greenhouse at an average atmospheric temperature of 25° C. Wettable powder of Target Compound (I) shown in Table 1 prepared in compliance with the preparation examples were diluted with water to the prescribed amount of chemical and uniformly sprayed onto the weeds using 15 liters of sprayed water per are when Digitaria ciliaris had grown to the 1.0 to 2.0 leaf stage. After treating for 3 weeks in a glass greenhouse at an average atmospheric temperature of 25° C., the herbicidal efficacy thereof was investigated, Evaluation of herbicidal efficacy was carried out in the same manner as the above-mentioned Test Example 1.
# Amaranthus retroflexus [2] = test: Weed foliar treatment test; format: in vivo; conditions: foliar spray, 3 weeks
# Procedure: as §2
# Chenopodium album [3] = test: Weed foliar treatment test; format: in vivo; conditions: foliar spray, 3 weeks
# Procedure: as §2
# Digitaria ciliaris [4] = test: Farming soil treatment test; format: in vivo; conditions: soil surface spray prior to weed growth, 30 days
# Procedure: (§3) Evaluation of herbicidal efficacy was carried out by comparing growth inhibition rate (%) with an untreated group, while evaluation of phytotoxicity was carried out by comparing growth inhibition rate (%) with the state of a complete eradication group, and were evaluated at 11 levels indicated below. [table] Field soil was filled into a 1/6000 are pot followed by seeding with Digitaria ciliaris, Chenopodium album and Amaranthus retroflexus and covering with soil. Wettable powder of compounds of formula (I) shown in Table 1 prepared in compliance with the preparation examples were diluted with water to the prescribed amount of chemical and uniformly sprayed onto each soil surface layer using 10 liters of sprayed water per are prior to weed growth following seeding. After treating for 30 days in a glass greenhouse at an average atmospheric temperature of 30° C., the herbicidal efficacy thereof was investigated. Evaluation of herbicidal efficacy was carried out in the same manner as the above-mentioned Test Example 1.
# Amaranthus retroflexus [5] = test: Farming soil treatment test; format: in vivo; conditions: soil surface spray prior to weed growth, 30 days
# Procedure: as §3
# Chenopodium album [6] = test: Farming soil treatment test; format: in vivo; conditions: soil surface spray prior to weed growth, 30 days
# Procedure: as §3
# Monochoria vaginalis = test: Paddy herbicidal activity test; format: in vivo; conditions: irrigated paddy pot, 30 days
# How it was run: as §1
# Scirpus juncoides = test: Paddy herbicidal activity test; format: in vivo; conditions: irrigated paddy pot, 30 days
# How it was run: as §1
# Echinochloa crus-galli = test: Paddy herbicidal activity test; format: in vivo; conditions: irrigated paddy pot, treated at 3.5 leaf stage of Echinochloa crus-galli, 30 days
# How it was run: as §1
Compound,phytotoxicity (growth inhibition rate level) Rice plants (Rice plants; 1g a.i./10a),phytotoxicity (growth inhibition rate level) Rice plants (Rice plants; 5g a.i./10a),herbicidal efficacy (growth inhibition rate level) Digitaria ciliaris (Digitaria ciliaris [1]; 5g a.i./10a),herbicidal efficacy (growth inhibition rate level) Digitaria ciliaris (Digitaria ciliaris [1]; 10g a.i./10a),herbicidal efficacy (growth inhibition rate level) Amaranthus retroflexus (Amaranthus retroflexus [2]; 5g a.i./10a),herbicidal efficacy (growth inhibition rate level) Amaranthus retroflexus (Amaranthus retroflexus [2]; 10g a.i./10a),herbicidal efficacy (growth inhibition rate level) Chenopodium album (Chenopodium album [3]; 5g a.i./10a),herbicidal efficacy (growth inhibition rate level) Chenopodium album (Chenopodium album [3]; 10g a.i./10a),herbicidal efficacy (growth inhibition rate level) Digitaria ciliaris (Digitaria ciliaris [4]; 5g a.i./10a),herbicidal efficacy (growth inhibition rate level) Digitaria ciliaris (Digitaria ciliaris [4]; 10g a.i./10a),herbicidal efficacy (growth inhibition rate level) Amaranthus retroflexus (Amaranthus retroflexus [5]; 5g a.i./10a),herbicidal efficacy (growth inhibition rate level) Amaranthus retroflexus (Amaranthus retroflexus [5]; 10g a.i./10a),herbicidal efficacy (growth inhibition rate level) Chenopodium album (Chenopodium album [6]; 5g a.i./10a),herbicidal efficacy (growth inhibition rate level) Chenopodium album (Chenopodium album [6]; 10g a.i./10a),herbicidal efficacy (growth inhibition rate level) Monochoria vaginalis (Monochoria vaginalis; 1g a.i./10a),herbicidal efficacy (growth inhibition rate level) Monochoria vaginalis (Monochoria vaginalis; 5g a.i./10a),herbicidal efficacy (growth inhibition rate level) Scirpus juncoides (Scirpus juncoides; 1g a.i./10a),herbicidal efficacy (growth inhibition rate level) Scirpus juncoides (Scirpus juncoides; 5g a.i./10a),herbicidal efficacy (growth inhibition rate level) Echinochloa crus-galli (Echinochloa crus-galli; 1g a.i./10a),herbicidal efficacy (growth inhibition rate level) Echinochloa crus-galli (Echinochloa crus-galli; 5g a.i./10a),further results
"N#Cc1cnn(-c2nn3c(c2Cl)CCCC3)c1N(CC1CC1)C(=O)C(F)(F)F [Compound 2, N-(1-(3-chloro-4,5,6,7-tetrahydropyrazolo[1,5-a]pyridin-2-yl)-4-cyanopyrazol-5-yl)-N-(cyclopropylmethyl)-2,2,2-trifluoroacetoamide]",0 (0 (exponent): 0% to less than 10% (growth inhibition rate)),1 (1: 10% to less than 20%),10 (10: 100%),10 (10: 100%),10 (10: 100%),10 (10: 100%),10 (10: 100%),10 (10: 100%),10 (10: 100%),10 (10: 100%),10 (10: 100%),10 (10: 100%),10 (10: 100%),10 (10: 100%),8 (8: 80% to less than 90%),9 (9: 90% to less than 100%),8 (8: 80% to less than 90%),8 (8: 80% to less than 90%),9 (9: 90% to less than 100%),9 (9: 90% to less than 100%),melting point: 87.3 to 101 °C
"N#Cc1cnn(-c2nn3c(c2Cl)CCCC3)c1NCC1CC1 [Compound 1, 1-(3-chloro-4,5,6,7-tetrahydropyrazolo[1,5-a]pyridin-2-yl)-5-(cyclopropylmethylamino)pyrazole-4-carbonitrile]",0 (0 (exponent): 0% to less than 10% (growth inhibition rate)),1 (1: 10% to less than 20%),10 (10: 100%),10 (10: 100%),10 (10: 100%),10 (10: 100%),10 (10: 100%),10 (10: 100%),10 (10: 100%),10 (10: 100%),10 (10: 100%),10 (10: 100%),10 (10: 100%),10 (10: 100%),8 (8: 80% to less than 90%),8 (8: 80% to less than 90%),8 (8: 80% to less than 90%),9 (9: 90% to less than 100%),9 (9: 90% to less than 100%),10 (10: 100%),melting point: 165 to 166 °C
"N#Cc1cnn(-c2nn3c(c2Cl)CCCC3)c1NC(C1CC1)C1CC1 [Compound 10, 1-(3-chloro-4,5,6,7-tetrahydropyrazolo[1,5-a]pyridin-2-yl)-5-(dicyclopropylmethylamino)pyrazole-4-carbonitrile]",0 (0 (exponent): 0% to less than 10% (growth inhibition rate)),1 (1: 10% to less than 20%),10 (10: 100%),10 (10: 100%),10 (10: 100%),10 (10: 100%),10 (10: 100%),10 (10: 100%),10 (10: 100%),10 (10: 100%),10 (10: 100%),10 (10: 100%),10 (10: 100%),10 (10: 100%),8 (8: 80% to less than 90%),9 (9: 90% to less than 100%),8 (8: 80% to less than 90%),9 (9: 90% to less than 100%),9 (9: 90% to less than 100%),9 (9: 90% to less than 100%),melting point: 132 to 133 °C
N#Cc1cnn(-c2nn3c(c2Cl)CCCC3)c1NCC1CC1(F)F (centres unmarked) [Compound 185],0 (0 (exponent): 0% to less than 10% (growth inhibition rate)),1 (1: 10% to less than 20%),10 (10: 100%),10 (10: 100%),10 (10: 100%),10 (10: 100%),10 (10: 100%),10 (10: 100%),10 (10: 100%),10 (10: 100%),10 (10: 100%),10 (10: 100%),10 (10: 100%),10 (10: 100%),9 (9: 90% to less than 100%),9 (9: 90% to less than 100%),10 (10: 100%),10 (10: 100%),10 (10: 100%),10 (10: 100%),
